pIC50: −log10 of the molar value.
Assays:
[1] = target: rat sucrase (partially purified alpha-glucosidase from intestinal rat powder) (Rattus norvegicus, UniProt P23739); test: Intestinal alpha-glucosidase assay, sucrose substrate (Glucose GO Kit); format: biochemical
Procedure, shortened: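 Rat intestinal enzyme prep + test cpd dilutions, 60 min 37 °C; add maltose (maltase) or sucrose (sucrase), 30 min 37 °C; stop 90 °C 5 min. Glucose readout (glucose oxidase kit). IC50 from 4-PL fit of % inhibition vs conc.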

[2] = target: T1, recombinant human GBA (beta-glucocerebrosidase) (Homo sapiens, UniProt P04062); test: Beta-glucocerebrosidase (GBA, glucosylceramidase) assay (4-methylumbelliferyl-beta-D-pyranoside substrate, fluorescence); format: biochemical
T1 sequence (P04062 40-536): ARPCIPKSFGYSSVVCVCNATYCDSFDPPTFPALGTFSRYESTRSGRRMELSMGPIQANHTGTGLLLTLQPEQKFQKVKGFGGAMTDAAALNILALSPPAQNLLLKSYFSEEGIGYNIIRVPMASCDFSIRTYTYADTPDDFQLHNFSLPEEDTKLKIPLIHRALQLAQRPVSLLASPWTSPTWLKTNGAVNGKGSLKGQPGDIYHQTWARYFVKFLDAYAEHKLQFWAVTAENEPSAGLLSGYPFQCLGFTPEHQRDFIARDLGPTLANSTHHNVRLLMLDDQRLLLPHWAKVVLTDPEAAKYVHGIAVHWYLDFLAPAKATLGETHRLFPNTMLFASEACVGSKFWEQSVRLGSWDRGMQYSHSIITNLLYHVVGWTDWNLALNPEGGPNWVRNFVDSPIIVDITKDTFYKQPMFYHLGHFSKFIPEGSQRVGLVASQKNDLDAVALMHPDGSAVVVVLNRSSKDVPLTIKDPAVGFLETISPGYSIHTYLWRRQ
Procedure: Beta-glucocerebrosidase (GBA, also referred to glucosylceramidase): To analyze inhibitory effects of a test compound, commercially available recombinant human GBA was incubated with multiple dilutions of test compound for 60 minutes at 37° C. 4-methylumbelliferyl-beta-D-pyranoside was then introduced to the mixture as substrate. Following incubation for 60 minutes at 37° C., 1,4-methyllumbelliferone was generated, and the reaction was stopped with the stop solution (0.5 M glycine; 0.3 M NaOH, pH 10). 1,4-methyllumbelliferone was detected by fluorescence (excitation at 365 nm, emission at 440 nm). Relative fluorescence compared to untreated enzymatic activity and test compound concentration is then plotted as a function of percent inhibition. The IC50 was determined using a 4-PL curve fit as the measure of relative inhibitory activity of each test compound (see Table 3).

Chain of rat sucrase (partially purified alpha-glucosidase from intestinal rat powder) (P23739 whole entry): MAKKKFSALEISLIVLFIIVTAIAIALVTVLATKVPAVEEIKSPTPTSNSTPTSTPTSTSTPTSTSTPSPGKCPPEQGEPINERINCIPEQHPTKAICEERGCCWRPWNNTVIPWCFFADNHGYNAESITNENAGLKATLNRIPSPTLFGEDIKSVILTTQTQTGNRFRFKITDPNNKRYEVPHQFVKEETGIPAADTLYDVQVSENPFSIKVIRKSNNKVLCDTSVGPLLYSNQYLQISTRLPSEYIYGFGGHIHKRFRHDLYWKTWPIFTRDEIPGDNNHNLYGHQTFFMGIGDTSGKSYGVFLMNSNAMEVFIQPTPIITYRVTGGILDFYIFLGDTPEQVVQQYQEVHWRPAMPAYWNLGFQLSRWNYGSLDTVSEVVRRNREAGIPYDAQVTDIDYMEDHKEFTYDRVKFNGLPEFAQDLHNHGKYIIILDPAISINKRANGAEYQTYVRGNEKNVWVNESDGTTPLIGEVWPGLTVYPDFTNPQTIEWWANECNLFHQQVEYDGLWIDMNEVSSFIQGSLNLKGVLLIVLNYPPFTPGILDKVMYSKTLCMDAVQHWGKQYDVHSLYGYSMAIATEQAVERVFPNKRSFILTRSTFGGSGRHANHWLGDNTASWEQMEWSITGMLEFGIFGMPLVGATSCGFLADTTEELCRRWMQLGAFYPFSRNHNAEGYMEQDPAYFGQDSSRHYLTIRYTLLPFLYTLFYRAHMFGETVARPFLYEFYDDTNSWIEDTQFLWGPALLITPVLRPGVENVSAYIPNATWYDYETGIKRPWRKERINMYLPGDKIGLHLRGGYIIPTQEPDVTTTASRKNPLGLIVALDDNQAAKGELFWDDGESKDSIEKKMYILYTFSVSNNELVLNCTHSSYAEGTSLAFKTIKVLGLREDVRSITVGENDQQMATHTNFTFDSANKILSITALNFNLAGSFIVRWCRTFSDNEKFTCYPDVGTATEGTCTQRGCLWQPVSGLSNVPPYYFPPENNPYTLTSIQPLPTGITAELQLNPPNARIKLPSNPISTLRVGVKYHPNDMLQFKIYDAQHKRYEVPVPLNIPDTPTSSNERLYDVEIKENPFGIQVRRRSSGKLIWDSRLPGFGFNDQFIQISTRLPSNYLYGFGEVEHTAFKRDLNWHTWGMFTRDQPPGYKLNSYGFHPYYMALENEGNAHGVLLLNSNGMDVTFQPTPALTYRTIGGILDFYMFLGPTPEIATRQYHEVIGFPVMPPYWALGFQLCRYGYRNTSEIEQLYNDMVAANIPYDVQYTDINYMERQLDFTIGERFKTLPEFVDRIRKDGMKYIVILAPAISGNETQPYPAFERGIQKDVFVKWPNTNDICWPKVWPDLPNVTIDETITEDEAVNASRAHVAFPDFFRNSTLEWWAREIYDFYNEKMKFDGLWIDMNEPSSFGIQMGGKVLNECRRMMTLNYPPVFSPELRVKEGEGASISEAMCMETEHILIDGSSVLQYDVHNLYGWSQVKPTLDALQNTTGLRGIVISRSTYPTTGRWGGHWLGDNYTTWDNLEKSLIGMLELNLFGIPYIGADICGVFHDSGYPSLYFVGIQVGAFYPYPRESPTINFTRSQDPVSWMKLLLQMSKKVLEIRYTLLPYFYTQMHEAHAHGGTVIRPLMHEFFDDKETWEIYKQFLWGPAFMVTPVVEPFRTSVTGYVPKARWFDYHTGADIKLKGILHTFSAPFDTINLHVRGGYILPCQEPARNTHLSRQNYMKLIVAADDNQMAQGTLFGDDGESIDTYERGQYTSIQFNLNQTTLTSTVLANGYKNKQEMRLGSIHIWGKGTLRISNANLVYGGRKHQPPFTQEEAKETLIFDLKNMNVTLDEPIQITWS

| SMILES | pIC50 [1] | pIC50 [2] |
| --- | --- | --- |
| COc1cc(NCCCCCCN2C[C@H](O)[C@@H](O)[C@H](O)[C@H]2CO)cc(-c2cnccn2)c1 [Compound 1197, (2R,3R,4R,5S)-2-(hydroxymethyl)-1-(6-{[3-methoxy-5-(pyrazin-2-yl)phenyl]amino}hexyl)piperidine-3,4,5-triol] | 6.75 | 5.68 |
| [N-]=[N+]=Nc1ccc(NCCc2cc(Br)cc(CCN3C[C@H](O)[C@@H](O)[C@H](O)[C@H]3CO)c2)c([N+](=O)[O-])c1 [Compound 1140, (2R,3R,4R,5S)-1-[2-(3-{2-[(4-azido-2-nitrophenyl)amino]ethyl}-5-bromophenyl)ethyl]-2-(hydroxymethyl)piperidine-3,4,5-triol] | 5.38 | 6.17 |
| OC[C@@H]1[C@@H](O)[C@H](O)[C@@H](O)CN1CCc1ccc(CCNc2cc(Cl)cc(-c3ncon3)c2)cc1 [Compound 1113, (2R,3R,4R,5S)-1-{2-[4-(2-{[3-chloro-5-(1,2,4-oxadiazol-3-yl)phenyl]amino}ethyl)phenyl]ethyl}-2-(hydroxymethyl)piperidine-3,4,5-triol] | 7.13 | 5.20 |
| OC[C@@H]1[C@@H](O)[C@H](O)[C@@H](O)CN1CCCCCCNc1cc(Cl)cc(-c2cnccn2)c1 [Compound 1196, (2R,3R,4R,5S)-1-(6-{[3-chloro-5-(pyrazin-2-yl)phenyl]amino}hexyl)-2-(hydroxymethyl)piperidine-3,4,5-triol] | 6.76 | 6.11 |
| OC[C@@H]1[C@@H](O)[C@H](O)[C@@H](O)CN1Cc1ccc(CNc2cc(-c3cccnn3)cc(C3CC3)c2)cc1 [Compound 1012, (2R,3R,4R,5S)-1-{[4-({[3-cyclopropyl-5-(pyridazin-3-yl)phenyl]amino}methyl)phenyl]methyl}-2-(hydroxymethyl)piperidine-3,4,5-triol] | 7.48 | 4.49 |
| CS(=O)(=O)c1cc(NCc2ccc(CN3C[C@H](O)[C@@H](O)[C@H](O)[C@H]3CO)cc2)cc(-c2cccnn2)c1 [Compound 1058, (2R,3R,4R,5S)-2-(hydroxymethyl)-1-{[4-({[3-methanesulfonyl-5-(pyridazin-3-yl)phenyl]amino}methyl)phenyl]methyl}piperidine-3,4,5-triol] | 7.34 | < 4.00 |
| COc1cc(NCCc2ccc(CCN3C[C@H](O)[C@@H](O)[C@H](O)[C@H]3CO)cc2)cc(-c2ncccn2)c1 [Compound 1156, (2R,3R,4R,5S)-2-(hydroxymethyl)-1-{2-[4-(2-{[3-methoxy-5-(pyrimidin-2-yl)phenyl]amino}ethyl)phenyl]ethyl}piperidine-3,4,5-triol] | 6.21 | 5.15 |
| N#Cc1cc(NCc2cccc(CN3C[C@H](O)[C@@H](O)[C@H](O)[C@H]3CO)c2)cc(C2=COCCO2)c1 [Compound 1044, 3-(5,6-dihydro-1,4-dioxin-2-yl)-5-{[(3-{[(2R,3R,4R,5S)-3,4,5-trihydroxy-2-(hydroxymethyl)piperidin-1-yl]methyl}phenyl)methyl]amino}benzonitrile] | > 9.00 | 4.27 |
| CS(=O)(=O)c1cc(Br)cc(NCc2cccc(CN3C[C@H](O)[C@@H](O)[C@H](O)[C@H]3CO)c2)c1 [Compound 1022, (2R,3R,4R,5S)-1-[(3-{[(3-bromo-5-methanesulfonylphenyl)amino]methyl}phenyl)methyl]-2-(hydroxymethyl)piperidine-3,4,5-triol] | 7.59 | 4.04 |
| [N-]=[N+]=Nc1ccc(NCCc2ccc(CCN3C[C@H](O)[C@@H](O)[C@H](O)[C@H]3CO)s2)c([N+](=O)[O-])c1 [Compound 1186, (2R,3R,4R,5S)-1-[2-(5-{2-[(4-azido-2-nitrophenyl)amino]ethyl}hiophen-2-yl)ethyl]-2-(hydroxymethyl)piperidine-3,4,5-triol] | 6.76 | 5.89 |
| OC[C@@H]1[C@@H](O)[C@H](O)[C@@H](O)CN1CCc1ccc(CCNc2cc(Cl)cc(-c3cccnn3)c2)cc1 [Compound 1163, (2R,3R,4R,5S)-1-{2-[4-(2-{[3-chloro-5-(pyridazin-3-yl)phenyl]amino}ethyl)phenyl]ethyl}-2-(hydroxymethyl)piperidine-3,4,5-triol] | 6.23 | 5.17 |
| [N-]=[N+]=Nc1ccc(NCCc2cc(CCN3C[C@H](O)[C@@H](O)[C@H](O)[C@H]3CO)cs2)c([N+](=O)[O-])c1 [Compound 1179, (2R,3R,4R,5S)-1-[2-(5-{2-[(4-azido-2-nitrophenyl)amino]ethyl}thiophen-3-yl)ethyl]-2-(hydroxymethyl)piperidine-3,4,5-triol] | 6.74 | 6.42 |
| CC(=O)Nc1cc(NCCCCCCN2C[C@H](O)[C@@H](O)[C@H](O)[C@H]2CO)cc(-c2ncccn2)c1 [Compound 1125, N-[3-(pyrimidin-2-yl)-5-({6-[(2R,3R,4R,5S)-3,4,5-trihydroxy-2-(hydroxymethyl)piperidin-1-yl]hexyl}amino)phenyl]acetamide] | 7.04 | 5.01 |
| CN(C)C(=O)c1cc(NCCCCCCN2C[C@H](O)[C@@H](O)[C@H](O)[C@H]2CO)cc(-c2ncccn2)c1 [Compound 1126, N,N-dimethyl-3-(pyrimidin-2-yl)-5-({6-[(2R,3R,4R,5S)-3,4,5-trihydroxy-2-(hydroxymethyl)piperidin-1-yl]hexyl}amino)benzamide] | 4.87 | 5.15 |
| OC[C@@H]1[C@@H](O)[C@H](O)[C@@H](O)CN1CCCCCCNc1cc(-c2ncccn2)cc(C2CC2)c1 [Compound 1009, (2R,3R,4R,5S)-1-(6-{[3-cyclopropyl-5-(pyrimidin-2-yl)phenyl]amino}hexyl)-2-(hydroxymethyl)piperidine-3,4,5-triol] | 7.15 | 5.59 |
| OC[C@@H]1[C@@H](O)[C@H](O)[C@@H](O)CN1CCCCCCNc1cc(-c2cccnn2)cc(C2CC2)c1 [Compound 1008, (2R,3R,4R,5S)-1-(6-{[3-cyclopropyl-5-(pyridazin-3-yl)phenyl]amino}hexyl)-2-(hydroxymethyl)piperidine-3,4,5-triol] | 7.11 | 5.63 |
| OC[C@@H]1[C@@H](O)[C@H](O)[C@@H](O)CN1CCCCCCNc1cc(Cl)cc(CN2CCCO2)c1 [Compound 1183, (2R,3R,4R,5S)-1-[6-({3-chloro-5-[(1,2-oxazolidin-2-yl)methyl]phenyl}amino)hexyl]-2-(hydroxymethyl)piperidine-3,4,5-triol] | 7.03 | 5.25 |
| O=[N+]([O-])c1cc(C2CC2)ccc1NCCCCCCN1C[C@H](O)[C@@H](O)[C@H](O)[C@H]1CO [Compound 1136, (2R,3R,4R,5S)-1-{6-[(4-cyclopropyl-2-nitrophenyl)amino]hexyl}-2-(hydroxymethyl)piperidine-3,4,5-triol] | > 9.00 | 7.43 |
| COc1cc(C#N)cc(NCCc2ccc(CCN3C[C@H](O)[C@@H](O)[C@H](O)[C@H]3CO)cc2)c1 [Compound 1133, 3-methoxy-5-{[2-(4-{2-[(2R,3R,4R,5S)-3,4,5-trihydroxy-2-(hydroxymethyl)piperidin-1-yl]ethyl}phenyl)ethyl]amino}benzonitrile] | 6.63 | 5.35 |
| [N-]=[N+]=Nc1ccc(NCCc2ccc(CCN3C[C@@H](O)[C@H](O)[C@@H](O)[C@@H]3CO)c3ccccc23)c([N+](=O)[O-])c1 (stereo in doubt) [Compound 1178, (2S,3S,4S,5R)-1-[2-(4-{2-[(4-azido-2-nitrophenyl)amino]ethyl}naphthalen-1-yl)ethyl]-2-(hydroxymethyl)piperidine-3,4,5-triol] | 4.15 | 5.23 |
| CC(C)(C)c1cc(NCCCCCCN2C[C@H](O)[C@@H](O)[C@H](O)[C@H]2CO)cc(-c2ncccn2)c1 [Compound 1151, (2R,3R,4R,5S)-1-(6-{[3-tert-butyl-5-(pyrimidin-2-yl)phenyl]amino}hexyl)-2-(hydroxymethyl)piperidine-3,4,5-triol] | > 9.00 | 6.52 |
| OC[C@@H]1[C@@H](O)[C@H](O)[C@@H](O)CN1Cc1ccc(CNc2cc(-c3ncccn3)cc(C3CC3)c2)cc1 [Compound 1013, (2R,3R,4R,5S)-1-{[4-({[3-cyclopropyl-5-(pyrimidin-2-yl)phenyl]amino}methyl)phenyl]methyl}-2-(hydroxymethyl)piperidine-3,4,5-triol] | 7.59 | < 4.00 |
| COC(OC)c1cc(NCCCCCCN2C[C@H](O)[C@@H](O)[C@H](O)[C@H]2CO)cc(-c2ncccn2)c1 [Compound 1124, (2R,3R,4R,5S)-1-(6-{[3-(dimethoxymethyl)-5-(pyrimidin-2-yl)phenyl]amino}hexyl)-2-(hydroxymethyl)piperidine-3,4,5-triol] | 6.83 | 5.52 |

— patent US20250197372A1 (priority 2020, published 2025)
